Test: excess molar enthalpy (molar enthalpy of mixing); xn = mol fraction of the nth substance listed
Settings: Fluid (supercritical or subcritical phases)

C=C(C)C1CC=C(C)CC1 (stereo not given) [1-methyl-4-(1-methylethenyl)cyclohexene] + O=C=O
excess molar enthalpy [kcal/mol]
Settings | 308.15 K | 313.15 K | 323.15 K
7640 kPa, x2 = 0.105 | – | – | -0.125
7640 kPa, x2 = 0.129 | -0.105 | – | -0.151
7640 kPa, x2 = 0.152 | – | – | -0.188
7640 kPa, x2 = 0.175 | – | – | -0.21
7640 kPa, x2 = 0.196 | -0.174 | – | -0.241
7640 kPa, x2 = 0.218 | – | -0.233 | –
7640 kPa, x2 = 0.238 | -0.211 | -0.258 | -0.31
7640 kPa, x2 = 0.277 | -0.245 | -0.287 | -0.361
7640 kPa, x2 = 0.314 | -0.271 | – | –
7640 kPa, x2 = 0.349 | – | -0.379 | –
7640 kPa, x2 = 0.382 | -0.329 | – | -0.527
7640 kPa, x2 = 0.413 | -0.374 | -0.476 | -0.555
7640 kPa, x2 = 0.442 | -0.391 | – | -0.594
7640 kPa, x2 = 0.47 | – | -0.553 | -0.644
7640 kPa, x2 = 0.492 | – | -0.577 | –
7640 kPa, x2 = 0.497 | -0.435 | – | –
7640 kPa, x2 = 0.522 | -0.466 | – | -0.725
7640 kPa, x2 = 0.546 | – | -0.668 | –
7640 kPa, x2 = 0.569 | – | -0.697 | -0.779
7640 kPa, x2 = 0.591 | -0.533 | – | -0.799
7640 kPa, x2 = 0.596 | – | -0.755 | –
7640 kPa, x2 = 0.613 | – | – | -0.831
7640 kPa, x2 = 0.633 | – | – | -0.868
7640 kPa, x2 = 0.652 | -0.58 | -0.832 | -0.87
7640 kPa, x2 = 0.671 | – | – | -0.817
7640 kPa, x2 = 0.697 | -0.633 | – | -0.755
7640 kPa, x2 = 0.722 | – | – | -0.694
7640 kPa, x2 = 0.738 | – | -0.957 | -0.652
7640 kPa, x2 = 0.753 | – | – | -0.613
7640 kPa, x2 = 0.775 | – | -1.01 | -0.559
7640 kPa, x2 = 0.808 | -0.749 | -1.03 | -0.472
7640 kPa, x2 = 0.839 | – | – | -0.394
7640 kPa, x2 = 0.845 | – | -1.07 | –
7640 kPa, x2 = 0.868 | – | -0.985 | -0.326
7640 kPa, x2 = 0.878 | -0.814 | – | –
7640 kPa, x2 = 0.894 | – | – | -0.257
7640 kPa, x2 = 0.918 | – | -0.617 | -0.191
7640 kPa, x2 = 0.962 | – | – | -0.0853
7640 kPa, x2 = 0.97 | -0.848 | – | –
7640 kPa, x2 = 0.972 | -0.842 | – | –
7640 kPa, x2 = 0.985 | – | -0.153 | –
10000 kPa, x2 = 0.058 | – | -0.00359 | 0.00287
10000 kPa, x2 = 0.111 | 0.0136 | -0.00526 | –
10000 kPa, x2 = 0.136 | 0.0134 | -0.00741 | –
10000 kPa, x2 = 0.16 | – | – | -0.0208
10000 kPa, x2 = 0.207 | 0.0184 | -0.0117 | -0.0535
10000 kPa, x2 = 0.25 | 0.0182 | -0.0151 | -0.0853
10000 kPa, x2 = 0.29 | – | -0.0182 | -0.117
10000 kPa, x2 = 0.328 | 0.0194 | – | –
10000 kPa, x2 = 0.358 | – | – | -0.18
10000 kPa, x2 = 0.363 | – | -0.0294 | –
10000 kPa, x2 = 0.38 | – | -0.0392 | –
10000 kPa, x2 = 0.397 | 0.0146 | – | –
10000 kPa, x2 = 0.428 | 0.011 | -0.0416 | -0.248
10000 kPa, x2 = 0.486 | 0.0043 | – | -0.301
10000 kPa, x2 = 0.513 | – | -0.065 | –
10000 kPa, x2 = 0.526 | – | -0.0743 | –
10000 kPa, x2 = 0.538 | – | – | -0.357
10000 kPa, x2 = 0.548 | -0.00741 | – | –
10000 kPa, x2 = 0.562 | -0.00908 | -0.082 | -0.383
10000 kPa, x2 = 0.585 | – | – | -0.402
10000 kPa, x2 = 0.627 | – | -0.105 | -0.437
10000 kPa, x2 = 0.666 | -0.0354 | -0.118 | -0.473
10000 kPa, x2 = 0.71 | -0.0492 | -0.14 | –
10000 kPa, x2 = 0.75 | -0.0612 | -0.15 | -0.551
10000 kPa, x2 = 0.785 | -0.0746 | -0.173 | –
10000 kPa, x2 = 0.801 | – | – | -0.585
10000 kPa, x2 = 0.818 | -0.0903 | – | -0.604
10000 kPa, x2 = 0.875 | -0.105 | -0.198 | -0.627
10000 kPa, x2 = 0.923 | -0.105 | -0.199 | -0.612
10000 kPa, x2 = 0.94 | -0.0985 | – | –
10000 kPa, x2 = 0.964 | -0.0803 | -0.146 | –
10000 kPa, x2 = 0.972 | – | – | -0.41
10000 kPa, x2 = 0.983 | -0.0495 | – | –
10000 kPa, x2 = 0.986 | – | -0.0834 | -0.243

From the NIST ThermoML archive (doi:10.1016/j.fluid.2006.05.027)
